{"source": "patent US20140323304A1", "about": "“HERBICIDE COMPOSITION AND WEED CONTROL METHOD” (SDS BIOTECH K.K., priority 2008, published 2014)", "experiment_in_all_cases": "Pot test on the foliar application (post-emergence treatment of weeds)", "assay_type_in_all_cases": "in vivo", "conditions_in_all_cases": "day 10", "key": {"Chenopodium album": {"tested_on": "Chenopodium album", "description": "(§1) Field soil was packed in a 350 cm^2 plastic pot and seeds of Echinochloa utilis, Digitaria adscendens, Avena fatua, Amaranthus viridis, Chenopodium album and Ipomoea purpurea were sown and covered with soil of about 1 cm thickness. After water absorption and at day 25 after the seeding, sugi-refined oil diluted with a stock solution or water was sprayed uniformly in a spray volume of 200 ml per 1 m^2. The test was performed in a glass greenhouse at a temperature of from 18 to 30° C., and the soil was appropriately moistened from the bottom side.\n(§2) Using each of the oily extracts obtained in Preparation Example 2, a flowable (emulsion) formulation was prepared according to Preparation Example 2. The herbicidal activity in the post-emergence stage was evaluated by the method according to Test Example 3 except that the dilution ratio of the spray solution with water was fixed to 4-fold dilution.\n(§3) Using the liquid formulation prepared in Formulation Example 3, the herbicidal activity in the post-emergence stage was evaluated by the method according to Test Example 3 except that the test was conducted under a fixed condition that the solution was used as a stock solution without being diluted with water. Also, a formulation using water as a substitute of an oily extract, i.e. a formulation containing sodium bicarbonate only was prepared for comparison, and its herbicidal effect was evaluated as a comparative example. The formulation was sprayed uniformly in a spray volume of 200 ml per 1 m^2.\nas §3, with “4,” for “3,”, “treatment of weeds” for “stage”, “calcium borate” for “sodium bicarbonate”\nas §3, with “5,” for “3,”, “treatment of weeds” for “stage”, “d-limonene” for “sodium bicarbonate”\n(§4) Using these essential oils, a flowable (emulsion) formulation was prepared according to Formulation Example 2. The herbicidal activity in the post-emergence treatment of weeds was evaluated by the method according to Test Example 3 except that the dilution ratio of the spray solution with water was fixed to 2-fold dilution."}, "Digitaria adscendens": {"tested_on": "Digitaria adscendens", "description": "as §1, §2, §3\nas §3, with “4,” for “3,”, “treatment of weeds” for “stage”, “calcium borate” for “sodium bicarbonate”\nas §3, with “5,” for “3,”, “treatment of weeds” for “stage”, “d-limonene” for “sodium bicarbonate”\nas §4"}, "Echinochloa utilis": {"tested_on": "Echinochloa utilis", "description": "as §1, §2, §3\nas §3, with “4,” for “3,”, “treatment of weeds” for “stage”, “calcium borate” for “sodium bicarbonate”\nas §3, with “5,” for “3,”, “treatment of weeds” for “stage”, “d-limonene” for “sodium bicarbonate”\nas §4"}, "Amaranthus viridis": {"tested_on": "Amaranthus viridis", "description": "as §1, §2, §3\nas §3, with “4,” for “3,”, “treatment of weeds” for “stage”, “calcium borate” for “sodium bicarbonate”\nas §3, with “5,” for “3,”, “treatment of weeds” for “stage”, “d-limonene” for “sodium bicarbonate”\nas §4"}, "Ipomoea purpurea": {"tested_on": "Ipomoea purpurea", "description": "as §1, §2, §3\nas §3, with “4,” for “3,”, “treatment of weeds” for “stage”, “calcium borate” for “sodium bicarbonate”\nas §3, with “5,” for “3,”, “treatment of weeds” for “stage”, “d-limonene” for “sodium bicarbonate”\nas §4"}, "Avena fatua": {"tested_on": "Avena fatua", "description": "as §1, §2, §3\nas §3, with “4,” for “3,”, “treatment of weeds” for “stage”, “calcium borate” for “sodium bicarbonate”\nas §3, with “5,” for “3,”, “treatment of weeds” for “stage”, “d-limonene” for “sodium bicarbonate”\nas §4"}, "[1]": {"conditions": "undiluted liquid formulation 200 ml/m^2, per 1 m^2: 20 ml of the essential oil and 12 g of sodium bicarbonate"}, "[2]": {"conditions": "undiluted liquid formulation 200 ml/m^2, per 1 m^2: 20 ml of the essential oil and 20 ml of d-limonene"}, "[3]": {"conditions": "undiluted liquid formulation 200 ml/m^2, per 1 m^2: 20 ml of the essential oil and 12 g of calcium borate"}}, "data": [{"compound": "O=C([O-])O.[Na+]", "note": "[sodium bicarbonate]", "values": [{"measurement": "Herbicidal activity Chenopodium album", "setting": "Chenopodium album; [1]", "result": "4 (36 to 45%)"}, {"measurement": "Herbicidal activity Digitaria adscendens", "setting": "Digitaria adscendens; [1]", "result": "4 (36 to 45%)"}, {"measurement": "Herbicidal activity Echinochloa utilis", "setting": "Echinochloa utilis; [1]", "result": "3 (26 to 35%)"}, {"measurement": "Herbicidal activity Amaranthus viridis", "setting": "Amaranthus viridis; [1]", "result": "3 (26 to 35%)"}, {"measurement": "Herbicidal activity Ipomoea purpurea", "setting": "Ipomoea purpurea; [1]", "result": "2 (16 to 25%)"}, {"measurement": "Herbicidal activity Avena fatua", "setting": "Avena fatua; [1]", "result": "4 (36 to 45%)"}]}, {"compound": "C=C(C)[C@H]1CC=C(C)CC1", "note": "[Comparative Example (d-limonene only), d-limonene]", "values": [{"measurement": "Herbicidal activity Chenopodium album", "setting": "Chenopodium album; [2]", "result": "6 (56 to 65%)"}, {"measurement": "Herbicidal activity Digitaria adscendens", "setting": "Digitaria adscendens; [2]", "result": "7 (66 to 75%)"}, {"measurement": "Herbicidal activity Echinochloa utilis", "setting": "Echinochloa utilis; [2]", "result": "5 (46 to 55%)"}, {"measurement": "Herbicidal activity Amaranthus viridis", "setting": "Amaranthus viridis; [2]", "result": "6 (56 to 65%)"}, {"measurement": "Herbicidal activity Ipomoea purpurea", "setting": "Ipomoea purpurea; [2]", "result": "4 (36 to 45%)"}, {"measurement": "Herbicidal activity Avena fatua", "setting": "Avena fatua; [2]", "result": "5 (46 to 55%)"}]}, {"compound": "calcium borate", "values": [{"measurement": "Herbicidal activity Chenopodium album", "setting": "Chenopodium album; [3]", "result": "4 (36 to 45%)"}, {"measurement": "Herbicidal activity Digitaria adscendens", "setting": "Digitaria adscendens; [3]", "result": "4 (36 to 45%)"}, {"measurement": "Herbicidal activity Echinochloa utilis", "setting": "Echinochloa utilis; [3]", "result": "4 (36 to 45%)"}, {"measurement": "Herbicidal activity Amaranthus viridis", "setting": "Amaranthus viridis; [3]", "result": "4 (36 to 45%)"}, {"measurement": "Herbicidal activity Ipomoea purpurea", "setting": "Ipomoea purpurea; [3]", "result": "3 (26 to 35%)"}, {"measurement": "Herbicidal activity Avena fatua", "setting": "Avena fatua; [3]", "result": "5 (46 to 55%)"}]}]}
